Assay results from patent US8697031B2, “Dual function polymer micelles” (Case Western Reserve University, priority 2004, dated 2014).
Where no end group is shown, it is not given here.

Tested on: SLK tumor endothelial cells
Assay: Flow cytometry analysis of micelle uptake
Type: cell-based
Conditions: SLK cells pre-incubated with free blocking peptide at 9 mM, then co-incubated with micelles
Procedure: SLK cells were seeded at 125,000 cells/well in 6-well plates in 2 mL DMEM with 10% FBS. After 24 h, 1 mg of micelles (from 3.3 mg/ml micelle suspension) for each micelle formulation with different cRGD density (0, 5, 16, 76% cRGD) was added into each well and incubated at 37° C. for 2 h. Then, cells were washed, trypsinized and neutralized. After centrifugation at 1200 rpm for 5 min, cells were re-suspended in 1 mL PBS, followed by filtration and analysis using flow cytometry. […] In the control experiment, SLK cells were first incubated with a free blocking peptide, Ala-Ala-Arg-Gly-Asp-Tyr (AARGDY) (SEQ ID NO: 757), and then co-incubated with 76% cRGD-functionalized micelles.

AARGDY
inhibition of uptake of 76% cRGD-functionalized micelles: ~100%
